The source made the active and inactive calls. No cut-off for these calls is given here.
How the values were obtained:
Rattus norvegicus [1] = assay: In vivo minimum effective dose inhibition of neuropathic pain (formalin test) upon p.o. administration; Not active.; format: functional, organism-based
Rattus norvegicus [2] = assay: In vivo minimum effective dose for anti-Parkinsonian activity in 6-OHDA rat model upon p.o. administration; Not active.; format: functional
Rattus norvegicus [3] = assay: Minimum effective dose required to measure neuropathic pain (In vivo) by formalin test upon p.o. […] in rat; format: functional; conditions: po, read-out: MED
[4] = target: Glutamate NMDA receptor; Grin1/Grin2b (Rattus norvegicus, UniProt P35439+Q00960); assay: Binding affinity against NR1A/2B receptor in rat brains by [3H]ifenprodil displacement.; format: tissue-based, Brain
Chain of Glutamate NMDA receptor; Grin1/Grin2b (Q00960 whole entry, other chains not shown): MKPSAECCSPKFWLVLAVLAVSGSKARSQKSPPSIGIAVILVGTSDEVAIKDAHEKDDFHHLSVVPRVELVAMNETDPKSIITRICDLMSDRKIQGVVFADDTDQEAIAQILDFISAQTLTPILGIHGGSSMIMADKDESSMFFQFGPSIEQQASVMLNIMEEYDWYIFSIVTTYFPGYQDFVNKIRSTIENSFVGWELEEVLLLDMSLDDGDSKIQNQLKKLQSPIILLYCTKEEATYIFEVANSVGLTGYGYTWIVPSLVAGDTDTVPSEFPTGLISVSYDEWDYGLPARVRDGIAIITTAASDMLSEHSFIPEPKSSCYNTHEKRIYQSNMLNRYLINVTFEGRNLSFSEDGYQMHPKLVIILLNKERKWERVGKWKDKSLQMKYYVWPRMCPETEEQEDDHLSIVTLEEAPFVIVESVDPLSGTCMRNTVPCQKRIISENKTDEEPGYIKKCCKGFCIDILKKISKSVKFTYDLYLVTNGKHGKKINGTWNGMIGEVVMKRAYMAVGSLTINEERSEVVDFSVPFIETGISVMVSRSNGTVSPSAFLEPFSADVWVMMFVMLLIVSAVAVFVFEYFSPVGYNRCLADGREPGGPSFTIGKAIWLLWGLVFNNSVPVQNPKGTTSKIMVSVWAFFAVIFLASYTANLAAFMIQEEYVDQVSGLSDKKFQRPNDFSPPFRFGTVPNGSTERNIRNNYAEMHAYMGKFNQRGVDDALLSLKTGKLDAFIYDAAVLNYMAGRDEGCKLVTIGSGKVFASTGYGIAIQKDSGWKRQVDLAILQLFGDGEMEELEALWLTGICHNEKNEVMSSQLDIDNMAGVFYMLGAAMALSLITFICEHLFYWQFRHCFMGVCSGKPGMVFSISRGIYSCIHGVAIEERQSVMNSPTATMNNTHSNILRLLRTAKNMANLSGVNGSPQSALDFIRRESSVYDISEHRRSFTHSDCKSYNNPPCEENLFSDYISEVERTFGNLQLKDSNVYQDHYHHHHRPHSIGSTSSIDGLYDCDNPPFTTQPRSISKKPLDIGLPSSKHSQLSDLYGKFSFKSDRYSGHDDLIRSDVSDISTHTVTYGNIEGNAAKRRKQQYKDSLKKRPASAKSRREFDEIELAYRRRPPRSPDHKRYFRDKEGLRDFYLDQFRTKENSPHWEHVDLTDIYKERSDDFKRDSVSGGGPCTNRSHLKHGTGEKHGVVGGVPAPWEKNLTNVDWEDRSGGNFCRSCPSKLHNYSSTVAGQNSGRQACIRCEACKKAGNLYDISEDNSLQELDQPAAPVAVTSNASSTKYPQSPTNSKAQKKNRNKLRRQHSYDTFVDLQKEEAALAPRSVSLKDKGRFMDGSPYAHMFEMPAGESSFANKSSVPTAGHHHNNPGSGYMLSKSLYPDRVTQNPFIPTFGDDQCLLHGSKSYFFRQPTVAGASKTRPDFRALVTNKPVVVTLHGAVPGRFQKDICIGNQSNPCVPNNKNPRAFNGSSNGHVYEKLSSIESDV

[5] = Binding affinity against NR1A/2B receptor using [3H]-ifenprodil radioligand in native rat brains; NA means not active
Rattus norvegicus [6] = assay: Minimum effective dose required to measure anti-parkinson's activity (In vivo) upon p.o. […] in rat; format: functional; conditions: po, read-out: MED

SMILES	MED (Rattus norvegicus [1])	MED (Rattus norvegicus [2])	IC50 [4]	other results
Cc1cc2[nH]c(O)nc2cc1C#CCN1CCC(Cc2ccc(F)cc2)CC1	inactive	inactive	–	–
CC1CC(Cc2ccc(F)cc2)CC(C)N1CC#Cc1ccc2[nH]c(O)nc2c1 (stereo not drawn)	inactive	inactive	–	–
Oc1nc2ccc(C#CCN3CCC(O)(Cc4ccc(F)cc4)CC3)cc2o1	–	inactive	–	minimal effective dose (Rattus norvegicus [3]): 30 mg/kg
Fc1ccc(CC2CCN(CC#Cc3ccc4[nH]c(S)nc4c3)CC2)cc1	inactive	inactive	–	–
O=c1[nH]c2ccc(C#CCN3CCC(=Cc4ccc(F)cc4)CC3)cc2[nH]1	–	–	142 nM	–
Oc1nc2ccc(C#CCN3CCC(O)(Cc4ccc(F)cc4)CC3)cc2s1	inactive	inactive	24 nM	–
CC(C#Cc1ccc2[nH]c(O)nc2c1)N1CCC(Cc2ccc(F)cc2)CC1 (stereo not drawn)	inactive	inactive	–	–
Cc1cc(C#CCN2CCC(Cc3ccc(F)cc3)CC2)cc2[nH]c(=O)[nH]c12	–	–	20 nM	–
Oc1nc2cc(C#CCN3CCC(=Cc4ccc(F)cc4)CC3)ccc2[nH]1	inactive	inactive	–	–
CC(C#Cc1ccc2[nH]c(=O)[nH]c2c1)N1CCC(Cc2ccc(F)cc2)CC1 (stereo not drawn)	–	–	100 nM	–
CC(C)(C#Cc1ccc2[nH]c(=O)[nH]c2c1)N1CCC(Cc2ccc(F)cc2)CC1	–	–	> 1000 nM	–
Fc1ccc(CC2CCN(CC#Cc3ccc4[nH]c(=S)[nH]c4c3)CC2)cc1	–	–	19 nM	–
Oc1nc2cc(C#CCN3CCC(Cc4ccc(F)cc4)CC3)ccc2[nH]1	–	–	–	minimal effective dose (Rattus norvegicus [3]): 10 mg/kg; minimal effective dose (Rattus norvegicus [2]; po, read-out: MED): 10 mg/kg
Oc1nc2c(C(F)(F)F)cc(C#CCN3CCC(Cc4ccc(F)cc4)CC3)cc2[nH]1	inactive	inactive	–	IC50 [5]: Not Active
CC1CC(Cc2ccc(F)cc2)CCN1CC#Cc1ccc2[nH]c(=O)[nH]c2c1 (stereo not drawn)	–	–	104 nM	–
Oc1nc2cc(C#CCN3CCC(Cc4cccc(F)c4)CC3)ccc2[nH]1	inactive	inactive	14 nM	–

SMILES	MED (Rattus norvegicus [1])	MED (Rattus norvegicus [2])	IC50 [4]	other results
O=c1[nH]c2cc(C#CCN3CCC(Cc4ccc(F)cc4)CC3)cnc2[nH]1	–	–	2 nM	–
O=C1Cc2cc(C#CCN3CCC(Cc4ccc(F)cc4)CC3)ccc2N1	inactive	inactive	56 nM	–
COc1cc2[nH]c(O)nc2cc1C#CCN1CCC(Cc2ccc(F)cc2)CC1	inactive	inactive	–	–
Oc1nc2cc(C#CCN3CCC(CCc4ccc(F)cc4)CC3)ccc2[nH]1	inactive	inactive	–	–
Oc1nc2cc(C#CCN3CCC(O)(Cc4ccc(F)cc4)CC3)ccc2[nH]1	inactive	inactive	21 nM	–
Oc1nc2c(C#CCN3CCC(Cc4ccc(F)cc4)CC3)cccc2[nH]1	inactive	inactive	–	–
CC1CC(Cc2ccc(F)cc2)CC(C)N1CC#Cc1ccc2[nH]c(=O)[nH]c2c1 (stereo not drawn)	–	–	157 nM	–
Cc1cc(C#CCN2CCC(Cc3ccc(F)cc3)CC2)cc2[nH]c(O)nc12	inactive	–	–	minimal effective dose (Rattus norvegicus [6]): 30 mg/kg
Oc1nc2cc(C#CCN3CCC(Cc4ccc(F)cc4)CC3)c[nH]c-2n1	inactive	inactive	–	–
Cc1cc2[nH]c(=O)[nH]c2cc1C#CCN1CCC(Cc2ccc(F)cc2)CC1	–	–	4 nM	–
Oc1nc2ccc(C#CCN3CCC(Cc4ccc(F)cc4)CC3)cc2o1	–	inactive	–	minimal effective dose (Rattus norvegicus [3]): 30 mg/kg
CC(C)(C#Cc1ccc2[nH]c(O)nc2c1)N1CCC(Cc2ccc(F)cc2)CC1	inactive	inactive	–	–
O=c1[nH]c2cccc(C#CCN3CCC(Cc4ccc(F)cc4)CC3)c2[nH]1	–	–	284 nM	–
COc1cc2[nH]c(=O)[nH]c2cc1C#CCN1CCC(Cc2ccc(F)cc2)CC1	–	–	9 nM	–
CC1CC(Cc2ccc(F)cc2)CCN1CC#Cc1ccc2[nH]c(O)nc2c1 (stereo not drawn)	inactive	inactive	–	–
Cc1c(C#CCN2CCC(Cc3ccc(F)cc3)CC2)cc2nc(O)[nH]c2c1C	inactive	inactive	–	–

— ChEMBL document CHEMBL1147596, “Subtype selective NMDA receptor antagonists: evaluation of some novel alkynyl analogues” (Bioorg Med Chem Lett, 2004)
